Assay results: ChEMBL document CHEMBL1681651, “A broad spectrum anticancer nucleoside with selective toxicity against human colon cells in vitro” (2011)

Tests used:
Assay type in all cases: functional
DU-145 = assay: Growth inhibition of human DU145 cells assessed as cell growth at 1 uM after 48 hrs by SRB assay; details: DU-145, 48 h, read-out: Activity
A549 = assay: Growth inhibition of human A549 cells after 48 hrs by […] growth inhibition assay; details: A549, 48 h
NCI-H226 = assay: Growth inhibition of human NCI-H226 cells after 48 hrs by […] growth inhibition assay; details: NCI-H226, 48 h
HT-29 = assay: Growth inhibition of human HT-29 cells after 48 hrs by […] growth inhibition assay; details: HT-29, 48 h
SK-MEL-2 = assay: Growth inhibition of human SK-MEL-2 cells after 48 hrs by […] growth inhibition assay; details: SK-MEL-2, 48 h
SK-MEL-5 = assay: Growth inhibition of human SK-MEL-5 cells after 48 hrs by […] growth inhibition assay; details: SK-MEL-5, 48 h
UO-31 = assay: Growth inhibition of human UO31 cells after 48 hrs by […] growth inhibition assay; details: UO-31, 48 h
[1] = Growth inhibition of human […] cells assessed as cell growth at 0.1 uM after 48 hrs by SRB assay; details: read-out: Activity
HOP-62 [2] = assay: Growth inhibition of human HOP62 cells assessed as cell growth at 0.1 uM after 48 hrs by SRB assay; details: HOP-62, 48 h, read-out: Activity
NCI-H460 = assay: Growth inhibition of human NCI-H460 cells assessed as cell growth at 0.1 uM after 48 hrs by SRB assay; details: NCI-H460, 48 h, read-out: Activity
SF-295 = assay: Growth inhibition of human SF295 cells assessed as cell growth at 0.1 uM after 48 hrs by SRB assay; details: SF-295, 48 h, read-out: Activity
SNB-19 = assay: Growth inhibition of human SNB19 cells assessed as cell growth at 0.1 uM after 48 hrs by SRB assay; details: SNB-19, 48 h, read-out: Activity
UACC-257 [3] = assay: Growth inhibition of human UACC257 cells assessed as cell growth at 0.1 uM after 48 hrs by SRB assay; details: UACC-257, 48 h, read-out: Activity
TK-10 = assay: Growth inhibition of human TK10 cells assessed as cell growth at 0.1 uM after 48 hrs by SRB assay; details: TK-10, 48 h, read-out: Activity
OVCAR-4 = assay: Growth inhibition of human OVCAR4 cells assessed as cell growth at 10 uM after 48 hrs by SRB assay; details: OVCAR-4, 48 h, read-out: Activity
OVCAR-8 [4] = assay: Growth inhibition of human OVCAR8 cells assessed as cell growth at 10 uM after 48 hrs by SRB assay; details: OVCAR-8, 48 h, read-out: Activity
786-0 = assay: Growth inhibition of human 786-0 cells assessed as cell growth at 10 uM after 48 hrs by SRB assay; details: 786-0, 48 h, read-out: Activity
MCF7 = assay: Growth inhibition of human MCF7 cells assessed as cell growth at 10 uM after 48 hrs by SRB assay; details: MCF7, 48 h, read-out: Activity
[5] = Growth inhibition of human […] cells assessed as cell growth at 100 uM after 48 hrs by SRB assay; details: read-out: Activity
HOP-62 [6] = assay: Growth inhibition of human HOP62 cells assessed as cell growth at 100 uM after 48 hrs by SRB assay; details: HOP-62, 48 h, read-out: Activity
OVCAR-8 [7] = assay: Growth inhibition of human OVCAR8 cells assessed as cell growth at 100 uM after 48 hrs by SRB assay; details: OVCAR-8, 48 h, read-out: Activity
A498 [8] = assay: Growth inhibition of human A498 cells assessed as cell growth at 100 uM after 48 hrs by SRB assay; details: A498, 48 h, read-out: Activity
HOP-62 [9] = assay: Growth inhibition of human HOP62 cells assessed as cell growth at 1 mM after 48 hrs by SRB assay; details: HOP-62, 48 h, read-out: Activity
SNB-75 = assay: Growth inhibition of human SNB75 cells assessed as cell growth at 1 mM after 48 hrs by SRB assay; details: SNB-75, 48 h, read-out: Activity
U-251 = assay: Growth inhibition of human U251 cells assessed as cell growth at 1 mM after 48 hrs by SRB assay; details: U-251, 48 h, read-out: Activity
UACC-257 [10] = assay: Growth inhibition of human UACC257 cells assessed as cell growth at 1 mM after 48 hrs by SRB assay; details: UACC-257, 48 h, read-out: Activity
IGROV-1 = assay: Growth inhibition of human IGROV1 cells assessed as cell growth at 1 mM after 48 hrs by SRB assay; details: IGROV-1, 48 h, read-out: Activity
OVCAR-3 = assay: Growth inhibition of human OVCAR3 cells assessed as cell growth at 1 mM after 48 hrs by SRB assay; details: OVCAR-3, 48 h, read-out: Activity
OVCAR-5 = assay: Growth inhibition of human OVCAR5 cells assessed as cell growth at 1 mM after 48 hrs by SRB assay; details: OVCAR-5, 48 h, read-out: Activity
OVCAR-8 [11] = assay: Growth inhibition of human OVCAR8 cells assessed as cell growth at 1 mM after 48 hrs by SRB assay; details: OVCAR-8, 48 h, read-out: Activity
A498 [12] = assay: Growth inhibition of human A498 cells assessed as cell growth at 1 mM after 48 hrs by SRB assay; details: A498, 48 h, read-out: Activity
NCI/ADR-RES = assay: Growth inhibition of human NCI/ADR-RES cells after 48 hrs by SRB assay
[13] = read-out: LC50 (the source's name)
[14] = read-out: pLC50 (the source's name) (converted)

**Q.** What does the source list for `CCOC(=O)C[C@H]1[C@@H](O[Si](C)(C)C(C)(C)C)[C@H](n2cnc3c(NC(=O)Nc4ccccc4)ncnc32)O[C@@H]1CNC(=O)NC`?
**A.** growth at 1 µM (DU-145): 123%; GI50 (A549; read-out: GI50): 4.18 µM; CC50 (A549; [13]): 79.1 µM; TGI (A549; read-out: TGI): 19.2 µM; GI50 (A549; read-out: pGI50 (converted)): 4.17 µM; CC50 (A549; [14]): 79.4 µM; TGI (A549; read-out: pTGI (converted)): 19.1 µM; GI50 (NCI-H226; read-out: GI50): > 100 µM; CC50 (NCI-H226; [13]): > 100 µM; TGI (NCI-H226; read-out: TGI): > 100 µM; GI50 (NCI-H226; read-out: pGI50 (converted)): > 100 µM; CC50 (NCI-H226; [14]): > 100 µM; TGI (NCI-H226; read-out: pTGI (converted)): > 100 µM; GI50 (HT-29; read-out: GI50): 4.2 µM; CC50 (HT-29; [13]): > 100 µM; TGI (HT-29; read-out: TGI): > 100 µM; GI50 (HT-29; read-out: pGI50 (converted)): 4.17 µM; CC50 (HT-29; [14]): > 100 µM; TGI (HT-29; read-out: pTGI (converted)): > 100 µM; GI50 (SK-MEL-2; read-out: GI50): 5.42 µM; CC50 (SK-MEL-2; [13]): > 100 µM; TGI (SK-MEL-2; read-out: TGI): 33.1 µM; GI50 (SK-MEL-2; read-out: pGI50 (converted)): 5.37 µM; CC50 (SK-MEL-2; [14]): > 100 µM; TGI (SK-MEL-2; read-out: pTGI (converted)): 33.1 µM; GI50 (SK-MEL-5; read-out: GI50): 4.34 µM; CC50 (SK-MEL-5; [13]): > 100 µM; TGI (SK-MEL-5; read-out: TGI): > 100 µM; GI50 (SK-MEL-5; read-out: pGI50 (converted)): 4.37 µM; CC50 (SK-MEL-5; [14]): > 100 µM; TGI (SK-MEL-5; read-out: pTGI (converted)): > 100 µM; GI50 (UO-31; read-out: GI50): 12.1 µM; CC50 (UO-31; [13]): 71.7 µM; TGI (UO-31; read-out: TGI): 29.5 µM; GI50 (UO-31; read-out: pGI50 (converted)): 12 µM; CC50 (UO-31; [14]): 72.4 µM; TGI (UO-31; read-out: pTGI (converted)): 29.5 µM; growth at 0.1 µM [1]: 77%; growth at 0.1 µM (HOP-62 [2]): 99%; growth at 0.1 µM (NCI-H460): 102%; growth at 0.1 µM (SF-295): 91%; growth at 0.1 µM (SNB-19): 92%; growth at 0.1 µM (UACC-257 [3]): 102%; growth at 0.1 µM (TK-10): 98%; growth at 10 µM (OVCAR-4): 95%; growth at 10 µM (OVCAR-8 [4]): 98%; growth at 10 µM (786-0): 86%; growth at 10 µM (MCF7): 89%; growth at 100 µM [5]: -27%; growth at 100 µM (HOP-62 [6]): 48%; growth at 100 µM (OVCAR-8 [7]): 29%; growth at 100 µM (A498 [8]): 13%; growth at 1000 µM (HOP-62 [9]): -65%; growth at 1000 µM (SNB-75): 22%; growth at 1000 µM (U-251): -61%; growth at 1000 µM (UACC-257 [10]): 9%; growth at 1000 µM (IGROV-1): -58%; growth at 1000 µM (OVCAR-3): -53%; growth at 1000 µM (OVCAR-5): 27%; growth at 1000 µM (OVCAR-8 [11]): -4%; growth at 1000 µM (A498 [12]): -41%; GI50 (NCI/ADR-RES; read-out: GI50): > 100 µM; CC50 (NCI/ADR-RES; [13]): > 100 µM; TGI (NCI/ADR-RES; read-out: TGI): > 100 µM; GI50 (NCI/ADR-RES; read-out: pGI50 (converted)): > 100 µM; CC50 (NCI/ADR-RES; [14]): > 100 µM; TGI (NCI/ADR-RES; read-out: pTGI (converted)): > 100 µM
